# Reference: US20260248961A1, “UTILIZATION OF A HIBERNATION-LIKE STATE IN NEUROLOGICAL DISEASES” (OKINAWA INSTITUTE OF SCIENCE AND TECHNOLOGY SCHOOL …, priority 2022, published 2026)
# Entries after “also recorded” stand apart in the source; their conditions may differ.
# Assays:
# [1] = test system: Q-neurons in the anteroventral periventricular nucleus (AVPe); experiment: QIH induction by CNO with body temperature and extracellular tetrode recording; format: in vivo, mice
# Description: All animals were single-housed prior to surgery. During surgery, mice were anesthetized with MMB (a cocktail of medetomidine, midazolam, and butorphanol) and 500 nL of AAV-hSyn-DIO-hM3D(Gq)-mCherry vector was infused through a small craniotomy above AVPe (ML ±0.3; AP +0.38; DV −5.0) at a rate of 50 nL per minute with a micropump syringe (World Precision Instrument). After infusion, the 35 G needle stayed at the infusion site for at least 15 minutes to allow diffusion of the vector. After surgery, animals were carefully monitored to full recovery. For LFP and single/multi-unit recording, we implanted a microdrive consisting of 9 independently adjustable tetrodes (14 um diameter, nichrome wire, gold plated to 200-300 kΩ). In the 2-3 weeks after surgery the depth of the tetrodes were slowly and manually adjusted until stable recording of LFP signals or separatable spike clusters was observed. All adjustments were conducted in a highly familiar small plastic bucket located in the recording room while the animals moved and behaved freely.
# (§1) Two to three weeks after surgery, mice were first habituated to intraperitoneal (i.p.) injection of saline four times (once per day). On the day of QIH induction, mice were allowed to be habituated to the experimental room (15C) for 1 hour. A dose of 1 mg/kg of clozapine N-oxide (CNO) was i.p. injected to induce QIH in the same experimental room under darkness and low ambient temperatures of about 18-19 degrees celsius. Mice were allowed to stay in the room for 48 hours, and then returned to the housing colony once the QIH state had wore off.
# All data were acquired using 32-channel Digital Lynx 4SX acquisition system (Neuralynx). The local field potential (LFP) was filtered at 2-9000 Hz. Spike waveforms were filtered between 0.6-6 kHz and those above a peak threshold of […] were time-stamped and digitized at 32,556 Hz. Spikes were manually sorted using SpikeSort3D software (Neuralynx). In short, waveform amplitudes of all spikes recorded from three channels were projected to three dimensional space and putative units were clustered. This procedure was repeated for all combinations of channels and also for energy of spikes. […] A low-pass filter with a cut-off frequency equal to half the target sampling frequency was applied to the LFP prior to downsampling to prevent signal distortion.
# [2] = test system: pilocarpine model of TLE; experiment: SRS onset monitoring after QIH induction during the latent period, pilocarpine model of TLE; format: in vivo, mice
# Description: as §1
# (§2) On the day of seizure injection, mice were first i.p. injected with 0.07 mL of scopolamine solution (0.5 mg/mL) to prevent adverse peripheral side effects. Thirty minutes later, 280 mg/kg pilocarpine solution was i.p. injected to produce acute seizure. After the mice reach stage 3, 4, or 5 on the Racine scale of behavioral seizures (modified version below), the development of status epilepticus (SE) is confirmed as a continuous state of seizures characterised by a behavioral expression such as a prominent head tic, rigidity of body and tail, and immobility. One to 3 hours after the initial onset of SE, 0.04 mL of Midazolam (5 mg/mL) was i.p. injected to attenuate the seizures.
# Animals are observed by trained personnel on a daily basis, starting with the first day after QIH exit. The monitoring process is performed while animals are in their homecages, in the experimental room. Observation is conducted for one hour per mouse per day using the scale above (table 1) to identify the severity of the behavioral seizures as they occur. For each mouse, the day on which the first seizure is observed, as well as the perceived severity, are recorded.
# [3] = test system: contextual fear memory; experiment: Contextual fear conditioning after QIH; format: in vivo, mice; conditions: after 48 hours of QIH and 72 hours recovery
# Description: as §1
# Mice were first handled by an experimenter for at least 5 days to reduce their anxiety. During conditioning, the animals were first allowed to explore the context A (30.5L×24.1W×21H cm, metal grid floor, ethanol odor, white light, white noise) and then received 5 foot shocks (0.75 mA for 2 seconds with 30 seconds inter-shock-intervals). Next day, the same animals returned to the shocked context A and a novel neutral context B (30.5L×24.1W×21H cm, plastic flat floor, acetic acid odor, NIR light under darkness, triangle roof). After QIH induction and recovery, the mice were retested both in contexts A and B.
# [4] = over four thousand adult patients (NPL17); cited from earlier work
# [5] = Seizure induction with pilocarpine; format: in vivo, mice
# Description: as §2
# [6] = applied on the epileptogenic zone; even after decades of monitoring (NPL22); cited from earlier work
smiles,measurement,setting,value
"C[N+]1([O-])CCN(C2=Nc3cc(Cl)ccc3Nc3ccccc32)CC1 [CNO, clozapine-N-oxide]",body temperature during QIH,"[1]; after CNO injection (1 mg/kg i.p.), Qrfp-iCre mice with AAV-hSyn-DIO-hM3D(Gq)-mCherry in AVPe, FIG. 1A",reduction in their body temperature
same,spike activity of individual pyramidal cells in the dorsal CA1,"[1]; after QIH induction, FIG. 1C",rapid reduction in their spike activity
same,power spectral density of LFP in the dorsal CA1,"[1]; during QIH, FIG. 1B",substantial reduction in broad frequency ranges
same,time mice stay under QIH after injection,"[1]; intraperitoneal CNO, spontaneous awakening and rewarming afterwards",48 h
same,multi-unit activity recorded from the hypothalamus,"[1]; upon QIH induction, FIG. 1D",reduced upon induction of QIH
same,SRS onset (duration of the latent phase),"[2]; QIH induced 24 h after midazolam, 48 h QIH, vs control animals in QIH chamber without induction, FIG. 2B",drastic delay in the SRS onset; also recorded: significantly delayed
same,severity of SRS (Racine scale),"[2]; QIH vs no QIH during the latent phase, FIG. 2C",no difference in the severity in the SRS
same,time of SRS after induction of the hibernation-like state,[2]; as opposed to 1-2 weeks in the rodent model,several months
same,freezing behavior in Post-Test A,"[3]; vs control animals without induction, FIG. 3B",comparable level of freezing behavior
same,freezing in Post-Test B (neutral context),[3]; all groups,negligible degree of freezing
CC[C@@H](C(N)=O)N1CCCC1=O [Levetiracetam],rate of psychiatric and behavioral side effects among the medications,[4],highest rates of side effects
"CC[C@@H]1C(=O)OC[C@@H]1Cc1cncn1C [Pilocarpine, pilocarpine]",time to seizures after injection,[5]; 280 mg/kg i.p.,thirty
same,duration of prolonged seizure (status epilepticus),[5]; before termination with an anticonvulsant drug,about two
NS(=O)(=O)Cc1noc2ccccc12 [Zonisamide],rate of psychiatric and behavioral side effects among the medications,[4],highest rates of side effects
CCCl [ethyl chloride],seizure outcome,[6],complete remission from seizures
